Test results reported in patent publication US11267812B2 (Mirati Therapeutics, Inc., priority 2016, dated 2022).

biological target: KRas G12C (Homo sapiens, UniProt P01116, C118S/C51S/C80L/G12C); test: KRas G12C Modification Assay (LCMS detection of covalent adduct); type: binding; settings: 5 μM compound, 3 hours
Experimental: A 10 μL aliquot of each protein solution was then transferred to a 384 well microtiter plate. Initial compound stocks were generated at fifty times their desired final assay concentration in DMSO.
Exemplary compounds of Formula (I) were diluted 25-fold into K-Ras Assay Buffer to a final of two times their final concentration. A 10 μL aliquot of each diluted compound solution was then added to each of the protein solutions in the microtiter plate to initiate reaction. […] At each time point, the reactions were quenched with 20 μL of a 25 mM acetic acid solution. […] Once all reactions were quenched, the plates were heat sealed and the samples were injected into a LC/MS system for data acquisition.
Samples were injected in their liquid phase onto a C-3 reverse phase column to remove assay buffer and prepare the samples for mass spectrometer. The proteins were eluted from the column using an acetonitrile gradient and fed directly into the mass analyzer. Initial raw data analysis took place in Agilent MassHunter software immediately post data acquisition.
Raw data analysis of the intact protein was exclusively a deconvolution of the multiple charge states of each protein in solution using a maximum entropy deconvolution provided in Mass Hunter. To minimize complexity, only the data over limited mass ranges were considered for analysis, with a minimum of one Dalton mass step intervals. The heights of all masses identified during raw data analysis were exported to be further analyzed in Spotfire® data analysis software.
Final data analysis was a multistep process in the Spotfire® data analysis software package. Briefly, each protein mass was calculated as a percent of the total signal of that sample, that percentage was then normalized to the percentage of signal of the protein in the absence of reactive compounds. Those normalized signals were reported as normalized percent of control (POC). […] Key: “A”≤25% POC; “B”>25% POC≤50% POC; “C”>50% POC and ND=not determined.

Compound | POC (normalized percent of control, KRas G12C modification)
C=CC(=O)N1CCN(c2nc(OCCCN3CCOCC3)nc3c2CCN(c2cc(O)cc4cccnc24)C3)CC1 [Example 205, 1-(4-(7-(6-hydroxyquinolin-8-yl)-2-(3-morpholinopropoxy)-5,6,7,8-tetrahydropyrido[3,4-d]pyrimidin-4-yl)piperazin-1-yl)prop-2-en-1-one] | C (“C”>50% POC)
C=CC(=O)N1CCN(c2nc(OC[C@@H]3CCCN3C)nc3c2CCN(c2c(C(C)C)ccc4[nH]ncc24)C3)CC1 [Example 248, (S)-1-(4-(7-(5-isopropyl-1H-indazol-4-yl)-2-((1-methylpyrrolidin-2-yl)methoxy)-5,6,7,8-tetrahydropyrido[3,4-d]pyrimidin-4-yl)piperazin-1-yl)prop-2-en-1-one] | C (“C”>50% POC)
C=CC(=O)N1CCN(c2nc(OCCCN3CCOCC3)nc3c2CCN(c2cc(O)cc4cc(C)[nH]c24)C3)CC1 [Example 167, 1-(4-(7-(5-hydroxy-2-methyl-1H-indol-7-yl)-2-(3-morpholinopropoxy)-5,6,7,8-tetrahydropyrido[3,4-d]pyrimidin-4-yl)piperazin-1-yl)prop-2-en-1-one] | B (“B”>25% POC≤50% POC)
C=CC(=O)N1CCN(c2nc(OCCCN3CCOCC3)nc3c2CCN(c2c(F)c(O)cc4ccccc24)C3)CC1 [Example 165, 1-[4-[7-(2-fluoro-3-hydroxy-1-naphthyl)-2-(3-morpholinopropoxy)-6,8-dihydro-5H-pyrido[3,4-d]pyrimidin-4-yl]piperazin-1-yl]prop-2-en-1-one] | C (“C”>50% POC)
C=CC(=O)N1CCN(c2nc(OCCCN3CCOCC3)nc3c2CCN(c2cc(O)cc4sc(C)nc24)C3)CC1 [Example 166, 1-[4-[7-(6-hydroxy-2-methyl-1,3-benzothiazol-4-yl)-2-(3-morpholinopropoxy)-6,8-dihydro-5H-pyrido[3,4-d]pyrimidin-4-yl]piperazin-1-yl]prop-2-en-1-one] | B (“B”>25% POC≤50% POC)
C=CC(=O)N1CCN(c2nc(OCCN(C)C)nc3c2CCN(c2cc(O)cc4ccccc24)C3)CC1CCO (stereo not drawn) [Example 171, 1-(4-(2-(2-(dimethylamino)ethoxy)-7-(3-hydroxynaphthalen-1-yl)-5,6,7,8-tetrahydropyrido[3,4-d]pyrimidin-4-yl)-2-(2-hydroxyethyl)piperazin-1-yl)prop-2-en-1-one] | C (“C”>50% POC)
C=CC(=O)N1CCN(c2nc(OCCCN3C[C@@H](F)[C@@H](F)C3)nc3c2CCN(c2cc(O)cc4ccccc24)C3)CC1 [Example 208, 1-(4-(2-(3-((3R,4S)-3,4-difluoropyrrolidin-1-yl)propoxy)-7-(3-hydroxynaphthalen-1-yl)-5,6,7,8-tetrahydropyrido[3,4-d]pyrimidin-4-yl)piperazin-1-yl)prop-2-en-1-one] | C (“C”>50% POC)
C=CC(=O)N1CCN(c2nc(OCCCN3CCOCC3)nc3c2CCN(c2c(C)c(O)cc4ccccc24)C3)CC1 [Example 173, 1-(4-(7-(3-hydroxy-2-methylnaphthalen-1-yl)-2-(3-morpholinopropoxy)-5,6,7,8-tetrahydropyrido[3,4-d]pyrimidin-4-yl)piperazin-1-yl)prop-2-en-1-one] | C (“C”>50% POC)
C=CC(=O)N1CCN(c2nc(OCCN3CCC[C@@H](F)C3)nc3c2CCN(c2cc(O)cc4ccccc24)C3)CC1 [Example 207, (R)-1-(4-(2-(2-(3-fluoropiperidin-1-yl)ethoxy)-7-(3-hydroxynaphthalen-1-yl)-5,6,7,8-tetrahydropyrido[3,4-d]pyrimidin-4-yl)piperazin-1-yl)prop-2-en-1-one] | C (“C”>50% POC)
C=CC(=O)N1CCN(c2nc(OC[C@@H]3CCCN3C)nc3c2CCN(c2ccccc2C(C)C)C3)CC1 [Example 158, 1-[4-[7-(2-isopropylphenyl)-2-[[(2S)-1-methylpyrrolidin-2-yl]methoxy]-6,8-dihydro-5H-pyrido[3,4-d]pyrimidin-4-yl]piperazin-1-yl]prop-2-en-1-one] | C (“C”>50% POC)

tested on: Phospho-ERK in NCI-H358 cells expressing KRas G12C; test: Cellular inhibition of KRas G12C by Phospho-ERK measurement in NCI-H358 cells; type: cell-based; settings: Homo sapiens; NCI-H358 cells, 3 hours compound treatment; read-out: IC50 (pERK(Thr202/Tyr204) normalized with GAPDH)
Method in brief: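 After 8–12 h attachment, NCI-H358 cells were treated with compounds for 3 h (0.5% DMSO final), fixed, methanol-permeabilized and immunostained. pERK(Thr202/Tyr204) was read by infrared imaging and normalized to GAPDH as percent of DMSO control. IC50 came from a 4-parameter fit.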

Compound | IC50 [µM]
C=CC(=O)N1CCN(c2nc(OC[C@@H]3CCCN3C)nc3c2CCN(c2cccc(C)c2C(F)(F)F)C3)CC1CC#N (stereo partly drawn) [Example 265, 2-(1-acryloyl-4-(7-(3-methyl-2-(trifluoromethyl)phenyl)-2-(((S)-1-methylpyrrolidin-2-yl)methoxy)-5,6,7,8-tetrahydropyrido[3,4-d]pyrimidin-4-yl)piperazin-2-yl)acetonitrile] | 0.001 to 1
C=CC(=O)N1CCN(c2nc(OC[C@@H]3COCCN3C)nc3c2CCN(c2cccc4ccccc24)C3)CC1CC#N (stereo partly drawn) [Example 272, 2-(1-acryloyl-4-(2-(((S)-4-methylmorpholin-3-yl)methoxy)-7-(naphthalen-1-yl)-5,6,7,8-tetrahydropyrido[3,4-d]pyrimidin-4-yl)piperazin-2-yl)acetonitrile] | 0.001 to 1
CN(C)C/C=C/C(=O)N1CCN(c2nc(OC[C@@H]3CCCN3C)nc3c2CCN(c2cccc4ccccc24)C3)C[C@@H]1CC#N [Example 235, 2-((S)-1-((E)-4-(dimethylamino)but-2-enoyl)-4-(2-(((S)-1-methylpyrrolidin-2-yl)methoxy)-7-(naphthalen-1-yl)-5,6,7,8-tetrahydropyrido[3,4-d]pyrimidin-4-yl)piperazin-2-yl)acetonitrile] | 0.001 to 1
C=CC(=O)N1CCN(c2nc(OC[C@@H]3C[C@@H](O)CN3C)nc3c2CCN(c2cccc4ccccc24)C3)CC1CC#N (stereo partly drawn) [Example 218, 2-(1-acryloyl-4-(2-(((2S,4R)-4-hydroxy-1-methylpyrrolidin-2-yl)methoxy)-7-(naphthalen-1-yl)-5,6,7,8-tetrahydropyrido[3,4-d]pyrimidin-4-yl)piperazin-2-yl)acetonitrile] | 0.001 to 1
C=CC(=O)N1CCN(c2nc(OCCCN3CCN(C(C)=O)CC3)nc3c2CCN(c2cc(O)cc4ccccc24)C3)CC1 [Example 135, 1-[4-[2-[3-(4-acetylpiperazin-1-yl)propoxy]-7-(3-hydroxy-1-naphthyl)-6,8-dihydro-5H-pyrido[3,4-d]pyrimidin-4-yl]piperazin-1-yl]prop-2-en-1-one] | 0.001 to 1
C=CC(=O)N1CCN(c2nc(OCC(CO)N(C)C)nc3c2CCN(c2cc(O)cc4ccccc24)C3)CC1 (stereo not drawn) [Example 55, 1-(4-(2-(2-(dimethylamino)-3-hydroxypropoxy)-7-(3-hydroxynaphthalen-1-yl)-5,6,7,8-tetrahydropyrido[3,4-d]pyrimidin-4-yl)piperazin-1-yl)prop-2-en-1-one] | 0.001 to 1
C=CC(=O)N1CCN(c2nc(OCCCN3CCCCC3)nc3c2CCN(c2cc(O)cc4ccccc24)C3)CC1 [Example 38, 1-(4-(7-(3-hydroxynaphthalen-1-yl)-2-(3-(piperidin-1-yl)propoxy)-5,6,7,8-tetrahydropyrido[3,4-d]pyrimidin-4-yl)piperazin-1-yl)prop-2-en-1-one] | 0.001 to 1
C=CC(=O)N1CCN(c2nc(OC[C@@H]3CCCN3C(C)C)nc3c2CCN(c2cc(O)cc4ccccc24)C3)CC1 [Example 145, 1-[4-[7-(3-hydroxy-1-naphthyl)-2-[[(2S)-1-isopropylpyrrolidin-2-yl]methoxy]-6,8-dihydro-5H-pyrido[3,4-d]pyrimidin-4-yl]piperazin-1-yl]prop-2-en-1-one] | 0.001 to 1
C=CC(=O)N1CCN(c2nc(OC[C@@H]3CCCN3C)nc3c2CCN(c2ccc(F)cc2C(F)(F)F)C3)CC1CC#N (stereo partly drawn) [Example 276, 2-(1-acryloyl-4-(7-(4-fluoro-2-(trifluoromethyl)phenyl)-2-(((S)-1-methylpyrrolidin-2-yl)methoxy)-5,6,7,8-tetrahydropyrido[3,4-d]pyrimidin-4-yl)piperazin-2-yl)acetonitrile] | 0.001 to 1
C=CC(=O)N1CCN(c2nc(OC[C@@H]3CCCN3C)nc3c2CCN(c2cccc(C)c2C)C3)CC1CC#N (stereo partly drawn) [Example 228, 2-(1-acryloyl-4-(7-(2,3-dimethylphenyl)-2-(((S)-1-methylpyrrolidin-2-yl)methoxy)-5,6,7,8-tetrahydropyrido[3,4-d]pyrimidin-4-yl)piperazin-2-yl)acetonitrile] | 0.001 to 1
C=CC(=O)N1CCN(c2nc(OC[C@@H]3CCCN3C)nc3c2CCN(c2cccc(Cl)c2C(F)(F)F)C3)CC1CC#N (stereo partly drawn) [Example 277, 2-(1-acryloyl-4-(7-(3-chloro-2-(trifluoromethyl)phenyl)-2-(((S)-1-methylpyrrolidin-2-yl)methoxy)-5,6,7,8-tetrahydropyrido[3,4-d]pyrimidin-4-yl)piperazin-2-yl)acetonitrile] | 0.001 to 1
